Test results as given in article PMC12136037, “Type II kinase inhibitors that target Parkinson’s disease–associated LRRK2” (Science Advances, 2025).
Several values for one entry are separate records, joined by “and”; a condition that tells them apart may be missing. Equal values may be shown once.

Key:
LRRK2^RCKW = molecular target: T1, LRRK2^RCKW (Homo sapiens, UniProt Q5S007); experiment: Biochemical LRRK2 activity assay (PhosphoSense, AssayQuant SOX peptide AQT0615); details: for IC50: LRRK2^RCKW kinase activity, in vitro; for normalized response (LRRK2 activity): normalized to 0% (no kinase) and 100% (no inhibitor) control, two singlicate columns per compound
T1 construct: LRRK2 R1327 to E2527; His6-Z-tag (TEV cleavable) (N, cleaved yes); host or cells: Sf9 insect cells (baculovirus)
T1 sequence (Q5S007 1327-2527): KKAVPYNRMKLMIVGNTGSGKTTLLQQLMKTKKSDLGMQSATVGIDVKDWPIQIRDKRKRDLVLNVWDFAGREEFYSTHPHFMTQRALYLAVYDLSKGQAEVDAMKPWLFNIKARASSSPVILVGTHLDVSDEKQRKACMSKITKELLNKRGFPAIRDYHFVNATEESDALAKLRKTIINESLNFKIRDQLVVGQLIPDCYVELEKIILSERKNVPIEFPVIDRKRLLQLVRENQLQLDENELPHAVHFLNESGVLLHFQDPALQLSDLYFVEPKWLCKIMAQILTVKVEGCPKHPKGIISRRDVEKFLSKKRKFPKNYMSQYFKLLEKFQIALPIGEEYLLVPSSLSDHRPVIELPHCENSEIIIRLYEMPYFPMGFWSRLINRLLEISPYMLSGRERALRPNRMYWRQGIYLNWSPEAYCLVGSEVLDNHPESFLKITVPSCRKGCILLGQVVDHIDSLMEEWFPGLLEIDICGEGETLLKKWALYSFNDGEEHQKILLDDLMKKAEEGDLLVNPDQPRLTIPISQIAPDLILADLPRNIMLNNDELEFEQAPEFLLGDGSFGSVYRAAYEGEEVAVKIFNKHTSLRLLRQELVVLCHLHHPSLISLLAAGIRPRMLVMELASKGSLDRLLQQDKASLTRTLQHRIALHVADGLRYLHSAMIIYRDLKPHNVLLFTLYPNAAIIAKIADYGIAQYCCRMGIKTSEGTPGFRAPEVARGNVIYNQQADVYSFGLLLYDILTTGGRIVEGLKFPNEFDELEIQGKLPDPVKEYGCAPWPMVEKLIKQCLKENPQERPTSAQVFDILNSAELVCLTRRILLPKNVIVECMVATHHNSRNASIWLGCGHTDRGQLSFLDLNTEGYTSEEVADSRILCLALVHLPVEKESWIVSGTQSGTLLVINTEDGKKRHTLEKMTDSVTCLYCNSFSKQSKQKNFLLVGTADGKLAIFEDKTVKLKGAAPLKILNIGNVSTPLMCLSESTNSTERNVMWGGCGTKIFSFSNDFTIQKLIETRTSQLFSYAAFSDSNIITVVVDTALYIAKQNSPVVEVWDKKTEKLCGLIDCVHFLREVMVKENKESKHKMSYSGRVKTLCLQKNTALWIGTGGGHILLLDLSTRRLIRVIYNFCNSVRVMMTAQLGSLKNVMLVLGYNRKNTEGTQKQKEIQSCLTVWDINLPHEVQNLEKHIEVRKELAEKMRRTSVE
Method in brief: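 Controls lacked protein and compound (0%) or compound only (100%). IC50 derived by nonlinear regression of normalized response versus log[inhibitor].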

[1] = molecular target: T2, ~100 representative kinases (Homo sapiens, UniProt Q96GD4); experiment: DSF 100 kinase selectivity screen; type: binding; details: Protein AURKB; average of three replicates;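 further: compound tested at 20 µM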
T2 construct: Recombinant protein kinase domains with a concentration of 2 μM
T2 sequence (Q96GD4 whole entry, the tested form may be a part): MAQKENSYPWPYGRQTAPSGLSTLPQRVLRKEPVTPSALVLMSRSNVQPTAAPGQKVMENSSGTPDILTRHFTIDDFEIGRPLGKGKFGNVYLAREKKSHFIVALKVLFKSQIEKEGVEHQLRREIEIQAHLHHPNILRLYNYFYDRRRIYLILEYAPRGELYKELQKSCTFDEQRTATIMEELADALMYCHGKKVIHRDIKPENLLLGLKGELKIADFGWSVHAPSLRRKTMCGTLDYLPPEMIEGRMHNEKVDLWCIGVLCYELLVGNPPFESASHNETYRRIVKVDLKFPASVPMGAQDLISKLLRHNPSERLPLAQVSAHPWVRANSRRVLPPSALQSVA
Method in brief: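 Each kinase domain, at 2 μM, is mixed with 20 μM test compound and SYPRO Orange in Hepes (20 mM, pH 7.5) with 500 mM NaCl. Temperature is then raised at 3°C/min and fluorescence-monitored unfolding yields the melting temperature change, ΔTm in degrees Celsius.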

SMILES	IC50 (LRRK2^RCKW) [µM]	normalized response (LRRK2 activity) (LRRK2^RCKW; log[inhibitor(mol)] -5.12494)	normalized response (LRRK2 activity) (LRRK2^RCKW; log[inhibitor(mol)] -5.60206)	normalized response (LRRK2 activity) (LRRK2^RCKW; log[inhibitor(mol)] -6.30103)	normalized response (LRRK2 activity) (LRRK2^RCKW; log[inhibitor(mol)] -6.90309)	normalized response (LRRK2 activity) (LRRK2^RCKW; log[inhibitor(mol)] -7.30103)	normalized response (LRRK2 activity) (LRRK2^RCKW; log[inhibitor(mol)] -7.60206)	normalized response (LRRK2 activity) (LRRK2^RCKW; log[inhibitor(mol)] -8.09691)	normalized response (LRRK2 activity) (LRRK2^RCKW; log[inhibitor(mol)] -8.61979)	normalized response (LRRK2 activity) (LRRK2^RCKW; log[inhibitor(mol)] -9.09691)	normalized response (LRRK2 activity) (LRRK2^RCKW; log[inhibitor(mol)] -9.39794)	dTm [1] [K]	normalized response (LRRK2 activity) (LRRK2^RCKW; log[inhibitor(mol)] -4.82391)
CC(=O)N1CCN(c2nc(Cl)nc3[nH]cc(-c4cccc(NC(=O)Nc5cc(C(C)(C)C)nn5-c5ccc(C)cc5)c4)c23)CC1 [Compound 31]	0.0824 ± 0.019	-8.142% and -8.098%	-6.069% and -3.667%	1.516% and 5.662%	27.0499% and 37.6124%	59.8343% and 70.8356%	80.8168% and 85.4399%	99.1997% and 109.801%	111.451% and 122.71%	117.928% and 123.215%	115.57% and 119.935%	-1.00	–
CNC(=O)c1cc(Oc2ccc(NC(=O)Nc3cc(C(C)(C)C)nn3-c3ccc4ncccc4c3)c(F)c2)ccn1 [Rebastinib, reference compound]	–	-10.5496% and -14.6792%	-7.259% and -5.877%	2.212% and 3.3144%	28.2838% and 28.5032%	54.9753% and 51.2954%	71.3236% and 68.1209%	89.2569% and 91.5273%	98.1961% and 113.387%	109.62% and 109.044%	108.15% and 116.184%	1.16	–
Cc1ccc(-n2nc(C(C)(C)C)cc2NC(=O)Nc2cccc(-c3c[nH]c4ncnc(N5CCOCC5)c34)c2)cc1 [Compound 29]	0.0202 ± 1e-05	-15.0137% and -16.6919%	-14.1253% and -13.1052%	-11.8493% and -10.5551%	-5.6961% and -4.1002%	9.533% and 17.3374%	45.8935% and 45.9868%	84.3047% and 80.6906%	106.121% and 110.711%	109.51% and 103.466%	104.536% and 110.261%	3.15	–
COc1cc(S(C)(=O)=O)ccc1Nc1nc(N(C)C)c2c(Cl)c[nH]c2n1 [Compound 37]	0.00721 ± 0.0021	2.952% and 3.194%	-7.27% and -5.12%	-12.6171% and -9.349%	-7.193% and -5.751%	5.9468% and 5.579%	17.6994% and 24.1378%	34.6729% and 53.1381%	84.0195% and 83.6411%	89.904% and 89.2624%	99.9785% and 100.571%	-0.0653	24.6753% and 13.9482%
CCc1ccc(NC(=O)C2(C(=O)Nc3cccc(-c4c[nH]c5ncnc(N6CCOCC6)c45)c3)CC2)cc1 [Compound 15]	0.96 ± 0.033	-0.2711% and -2.401%	22.7451% and 24.0892%	67.6419% and 69.4402%	95.7584% and 98.1889%	103.897% and 98.4037%	108.801% and 106.855%	103.13% and 100.705%	105.315% and 96.9982%	106.518% and 101.982%	107.174% and 104.775%	–	–
COc1ccc(NC(=O)C2(C(=O)Nc3cccc(-c4c[nH]c5ncnc(N6CCOCC6)c45)c3)CC2)cc1 [Compound 16]	1.1 ± 0.217	0.6005% and -2.272%	29.0484% and 32.3505%	66.3591% and 78.0881%	96.3721% and 94.5984%	96.366% and 105.259%	97.2621% and 95.7829%	97.8759% and 91.3822%	98.0661% and 96.7588%	100.497% and 98.6001%	96.0714% and 99.3612%	–	-5.114% and -9.8151%
COc1cc(NC(=O)C2(C(=O)Nc3cccc(-c4c[nH]c5ncnc(N6CCOCC6)c45)c3)CC2)ccc1F [Compound 21]	0.331 ± 0.059	-8.581% and -13.1049%	-3.229% and 0.9871%	31.841% and 40.7652%	74.4117% and 83.0044%	89.3998% and 91.1429%	98.2625% and 97.8145%	90.8667% and 93.1069%	91.1981% and 94.2547%	94.6536% and 91.2165%	100.092% and 102.338%	–	–
O=C(Nc1cccc(-c2c[nH]c3ncnc(N4CCOCC4)c23)c1)C1(C(=O)Nc2ccc(F)c(F)c2)CC1 [Compound 17]	0.253 ± 0.033	-9.447% and -10.6928%	0.9319% and 1.085%	26.1821% and 29.3798%	67.0342% and 72.3494%	85.8031% and 94.494%	98.3853% and 103.983%	103.068% and 102.123%	111.403% and 110.329%	113.398% and 109.795%	105.315% and 104.756%	–	-1.222% and -11.0979%
CC(C)(C)c1cc(NC(=O)Nc2cccc(-c3c[nH]c4ncnc(N5CCOCC5)c34)c2)n(-c2ccc3ncccc3c2)n1 [Compound 28]	0.0597 ± 0.0029	-4.603% and -7.6443%	-5.899% and -7.93%	-0.5957% and -1.998%	20.6807% and 19.3416%	54.9087%	83.9541% and 76.0062%	102.755% and 100.691%	109.195% and 109.069%	110.935% and 112.883%	72.3369% and 118.777%	–	3.992% and -4.217%
